Reference: PMC10689081 (BMB Reports, 2023)
“Also recorded” adds a separate entry of the source.

Experiments:
Mpro dimer = test system: Mpro dimer; parameters: species or system SARS-CoV-2
Solubility in water = format: physicochemical; conditions: Supplementary Fig. 4
SARS-CoV-2 Mpro = format: biochemical
[1] = Superose-12 10/300, 0.5 ml/min, buffer D pH 7.5, 298 K (Fig. 1B)

Sequence: SGFRKMAFPS [N10]
- disruption of dimer conformation (conclusion in words) (Mpro dimer): disrupted the dimer conformation
- shift of Mpro dimer peak on adding N10 (Mpro dimer; Superose-12 10/300, 0.5 ml/min, 50 mM Tris-HCl pH 7.5, 1 M NaCl, 10% Glycerol, 1 mM DTT, 298 K (Fig. 1B)): shifted the Mpro dimer peak into a smaller size; also recorded: from dimer to a smaller size, a presumably monomer
- height of the delayed shifted peak compared to the original peak (Mpro dimer; [1]): half-size in height
- shape of the peak of Mpro with N10 (Mpro dimer; [1]): overlapped shape of two peaks of primary and shoulder; also recorded: overlapped uneven two peaks of primary and shoulder
- solubility in water (Solubility in water): soluble in water
- inhibition of Mpro activity (in words) (SARS-CoV-2 Mpro; N10, 1 μM Mpro, 0-500 μM N10, 10 μM substrate, 298 K): also shows inhibitory activity; also recorded: can inhibit the Mpro activity; also recorded: could inhibit the proteolytic activity of Mpro
- inhibitory activity of N10 compared with GC376 (in words) (SARS-CoV-2 Mpro; sub-millimolar concentrations (Fig. 2B)): weaker than that of GC376
